Test results reported in patent US10757939B2, “Insecticidal and nematocidal active ingredient combinations” (priority 2014, dated 2020).
Like-named read-outs stand apart in the source and are kept apart here.

Key:
Myzus persicae = Myzus persicae - drench test (cabbage plants); type: in vivo; conditions: soil
Experimental: (§1) Formula for the Efficacy of the Combination of Two Compounds
(§2) Schneider-Orelli: Formula to Calculate Corrected Efficacy % in Pesticide Trials
Myzus persicae—Drench Test
(§3) • Solvent: 7 parts by weight of dimethylformamide • Emulsifier: 2 parts by weight of alkylaryl poly glycol ether
(§4) In the calculation of the concentration the soil volume has to be included. […] Further test concentrations are prepared by dilution with water.
(§5) After the specified period of time mortality in % is determined. 100% means all the aphids have been killed and 0% means none of the aphids have been killed. The mortality values determined thus are recalculated using the Colby-formula (see sheet 1).

Meloidogyne incognita [1] = test: Meloidogyne incognita - test (gall formation, sand, salad seedlings); type: in vivo
Experimental: as §1, §2
Meloidogyne incognita—Test […]
Vessels are filled with sand, a solution of the active ingredient, a suspension containing eggs and larvae of the southern root-knot nematode (Meloidogyne incognita) and salad seeds. The salad seeds germinate and the seedlings grow. Galls develop in the roots.
After the specified period the nematicidal activity is determined on the basis of the percentage of gall formation.

Spodoptera frugiperda = Spodoptera frugiperda - drench test (corn plants); type: in vivo
Experimental: as §1, §2
Spodoptera frugiperda—Drench Test
as §3, §4
as §5, with “determined and corrected according to Schneider-Orelli's formula (see sheet 1).” for “determined.”, “caterpillars” for “aphids”

Tetranychus urticae = Tetranychus urticae - drench test; OP-resistant (bean plants); type: in vivo; conditions: for mortality at 25 ppm: Tetranychus urticae, soil, 360 h, read-out: Efficacy in % after 15 d (mortality)
Experimental: as §1, §2
Tetranychus urticae—Drench Test; OP-Resistant
as §3, §4
After the specified period of time mortality in % is determined. 100% means all the spider mites have been killed and 0% means none of the spider mites have been killed. The mortality values determined thus are recalculated using the Colby-formula (see sheet 1).

Meloidogyne incognita [2] = test: Meloidogyne incognita - drench test (soil, salad seedlings); type: in vivo
Experimental: as §1, §2
Meloidogyne incognita—Drench Test
• Solvent: 7 parts by weight of dimethylformamide • Emulsifier: 2.5 parts by weight of alkylarylpolyglycolether
as §4
The compound solution is poured into pots filled with soil (loamy sand). A suspension containing eggs and larvae of the southern root-knot nematode (Meloidogyne incognita) is added, salad seeds are spread on the soil surface and covered with quartz sand. The salad seeds germinate and the seedlings grow. Galls develop on the roots.
After the specified period of time the nematicidal activity is determined on the basis of the percentage of gall formation. […] The activity determined thus is recalculated using the Colby-formula (see sheet 1).

[3] = 168 h, 7 d, read-out: Efficacy in % after 7d
[4] = 240 h, 10 d, read-out: Efficacy in % after 10d

Compound CNC(=O)c1cc(C#N)cc(C)c1NC(=O)c1cc(Cn2nnc(C(F)(F)F)n2)nn1-c1ncccc1Cl [1-(3-chloropyridin-2-yl)-N-[4-cyano-2-methyl-6-(methylcarbamoyl)phenyl]-3-{[5-(trifluoromethyl)-2H-tetrazol-2-yl]methyl}-1H-pyrazole-5-carboxamide] has a pest or weed control at 0.25 ppm (Myzus persicae; [3]) of 0% and a pest or weed control at 0.25 ppm (Myzus persicae; [4]) of 0%.

With C/C=C(\C)C(=O)O[C@H]1C[C@@H](OC(C)=O)[C@@]2(C(=O)OC)CO[C@H]3[C@@H](O)[C@@](C)([C@]45O[C@@]4(C)[C@H]4C[C@@H]5O[C@@H]5OC=C[C@@]54O)[C@H]4[C@]1(CO[C@]4(O)C(=O)OC)[C@@H]32 [Azadirachtin] the “Efficacy in % after 14d” value (Meloidogyne incognita [1]; 16 ppm) was 0%.

With CCOP(=O)(SC(C)CC)SC(C)CC (stereo not drawn) [Cadusafos] the “Efficacy in % after 14d” value (Meloidogyne incognita [1]; 50 ppm) was 0% and the “Efficacy in % after 14d” value (Meloidogyne incognita [1]; 100 ppm) was 0%.

With CNC(=O)Oc1cccc2c1OC(C)(C)C2 [Carbofuran] the “Efficacy in % after 14d” value (Meloidogyne incognita [1]; 50 ppm) was 0% and the “Efficacy in % after 14d” value (Meloidogyne incognita [1]; 100 ppm) was 0%.

With CNC(=O)c1cc(Cl)cc(C)c1NC(=O)c1cc(Br)nn1-c1ncccc1Cl [Chlorantraniliprole] the “Efficacy in % after 14d” value (Spodoptera frugiperda; 0.04 ppm) was 66.5%, the pest or weed control at 0.8 ppm (Myzus persicae; 168 h, 0.8 ppm, 7 d, read-out: Efficacy in % after 7d) was 10% and the pest or weed control at 1.6 ppm (Myzus persicae; 168 h, 1.6 ppm, 7 d, read-out: Efficacy in % after 7d) was 20%. It also gave a pest or weed control at 0.4 ppm (Myzus persicae; 240 h, 0.4 ppm, 10 d, read-out: Efficacy in % after 10d) of 0%.

In the case of CN/C(=N\[N+](=O)[O-])NCc1cnc(Cl)s1 [Clothianidin, reference compound], the “Efficacy in % after 6d” value (Spodoptera frugiperda; 2 ppm) is reported as 0%, the “Efficacy in % after 4d” value (Spodoptera frugiperda; 10 ppm) is reported as 0% and the “Efficacy in % after 6d” value (Spodoptera frugiperda; 10 ppm) is reported as 37%.

For O=C(Nc1ccn(-c2c(F)cccc2F)n1)c1ccccc1C(F)(F)F [Compound (Ia), N-[1-(2,6-difluorophenyl)-1H-pyrazol-3-yl]-2-(trifluoromethyl)benzamide], the “Efficacy in % after 14d” value (Meloidogyne incognita [1]; 1 ppm) was 0%, the “Efficacy in % after 14d” value (Meloidogyne incognita [1]; 5 ppm) was 0% and the “Efficacy in % after 14d” value (Meloidogyne incognita [1]; 10 ppm) was 0%. For the same compound, the “Efficacy in % after 14d” value (Spodoptera frugiperda; 0.2 ppm) was 0%, the “Efficacy in % after 14d” value (Spodoptera frugiperda; 40 ppm) was 0% and the “Efficacy in % after 4d” value (Spodoptera frugiperda; 200 ppm) was 0%. For the same compound, the “Efficacy in % after 6d” value (Spodoptera frugiperda; 200 ppm) was 0%, the logP (logP by HPLC-MS) was 2.68 and the mortality at 25 ppm (Tetranychus urticae) was 10%. For the same compound, the “Efficacy in % after 21d” value (Meloidogyne incognita [2]; 0.75 ppm) was 0%, the pest or weed control at 2 ppm (Myzus persicae; [3]) was 0% and the pest or weed control at 20 ppm (Myzus persicae; [3]) was 0%. For the same compound, the pest or weed control at 2 ppm (Myzus persicae; [4]) was 0% and the pest or weed control at 20 ppm (Myzus persicae; [4]) was 0%.

With O=C(Nc1ccn(-c2ncc(F)cc2F)n1)c1ccccc1C(F)(F)F [Compound (Ib), N-[1-(3,5-difluoropyridin-2-yl)-1H-pyrazol-3-yl]-2-(trifluoromethyl)benzamide] the “Efficacy in % after 14d” value (Spodoptera frugiperda; 40 ppm) was 0%, the “Efficacy in % after 4d” value (Spodoptera frugiperda; 200 ppm) was 0% and the “Efficacy in % after 6d” value (Spodoptera frugiperda; 200 ppm) was 0%. For the same compound, the mortality at 25 ppm (Tetranychus urticae; drench, bean plants, 25 ppm, after 15 d, single compound) was 0%, the “Efficacy in % after 21d” value (Meloidogyne incognita [2]; 0.75 ppm) was 55% and the pest or weed control at 2 ppm (Myzus persicae; [3]) was 0%. The pest or weed control at 20 ppm (Myzus persicae; [3]) was 0% and the pest or weed control at 2 ppm (Myzus persicae; [4]) was 0%.

For O=C(Nc1cnn(-c2c(F)cccc2F)n1)c1ccccc1C(F)(F)F [Compound (Ic), N-[2-(2,6-Difluorophenyl)-2H-1,2,3-triazol-4-yl]-2-(trifluoromethyl)benzamide], the “Efficacy in % after 14d” value (Meloidogyne incognita [1]; 0.25 ppm) was 0%, the “Efficacy in % after 14d” value (Meloidogyne incognita [1]; 1 ppm) was 0% and the “Efficacy in % after 14d” value (Meloidogyne incognita [1]; 5 ppm) was 0%. The “Efficacy in % after 14d” value (Meloidogyne incognita [1]; 10 ppm) was 70%, the “Efficacy in % after 14d” value (Spodoptera frugiperda; 0.2 ppm) was 0% and the “Efficacy in % after 14d” value (Spodoptera frugiperda; 0.8 ppm) was 0%. For the same compound, the “Efficacy in % after 4d” value (Spodoptera frugiperda; 200 ppm) was 0%, the “Efficacy in % after 6d” value (Spodoptera frugiperda; 200 ppm) was 0% and the logP (logP by HPLC-MS) was 2.80. For the same compound, the mortality at 25 ppm (Tetranychus urticae) was 0%, the pest or weed control at 2 ppm (Myzus persicae; [3]) was 0% and the pest or weed control at 20 ppm (Myzus persicae; [3]) was 0%. The pest or weed control at 2 ppm (Myzus persicae; [4]) was 0%.

In the case of CNC(=O)c1cc(C#N)cc(C)c1NC(=O)c1cc(Br)nn1-c1ncccc1Cl [Cyantraniliprole], the “Efficacy in % after 14d” value (Spodoptera frugiperda; 0.08 ppm) is reported as 16.5%, the pest or weed control at 0.1 ppm (Myzus persicae; [3]) is reported as 20% and the pest or weed control at 0.1 ppm (Myzus persicae; [4]) is reported as 10%.

For N#Cc1nn(-c2c(Cl)cc(C(F)(F)F)cc2Cl)c(N)c1[S+]([O-])C(F)(F)F (stereo not drawn) [Fipronil], the pest or weed control at 5 ppm (Myzus persicae; [3]) was 15%, the pest or weed control at 10 ppm (Myzus persicae; [3]) was 40% and the pest or weed control at 5 ppm (Myzus persicae; [4]) was 50%. For the same compound, the pest or weed control at 10 ppm (Myzus persicae; [4]) was 55%.

In the case of Cc1cc(C(F)(C(F)(F)F)C(F)(F)F)ccc1NC(=O)c1cccc(I)c1C(=O)NC(C)(C)CS(C)(=O)=O [Flubendiamide, reference compound], the “Efficacy in % after 14d” value (Spodoptera frugiperda; 4 ppm) is reported as 33% and the “Efficacy in % after 14d” value (Spodoptera frugiperda; 8 ppm) is reported as 66%.

For O=C(NCCc1ncc(C(F)(F)F)cc1Cl)c1ccccc1C(F)(F)F [Fluopyram, reference compound], the “Efficacy in % after 21d” value (Meloidogyne incognita [2]; 0.15 ppm) was 0%.

For O=[N+]([O-])NC1=NCCN1Cc1ccc(Cl)nc1 [Imidacloprid, reference compound], the “Efficacy in % after 6d” value (Spodoptera frugiperda; 10 ppm) was 0%, the “Efficacy in % after 4d” value (Spodoptera frugiperda; 50 ppm) was 22% and the “Efficacy in % after 6d” value (Spodoptera frugiperda; 50 ppm) was 12%.

For CC(C)NC(=O)N1CC(=O)N(c2cc(Cl)cc(Cl)c2)C1=O [Iprodione], the “Efficacy in % after 14d” value (Meloidogyne incognita [1]; 50 ppm) was 0% and the “Efficacy in % after 14d” value (Meloidogyne incognita [1]; 100 ppm) was 0%.

In the case of O=C(N=c1ccccn1Cc1ccc(Cl)nc1)C(F)(F)F [N-[1-[(6-chloro-3-pyridinyl)methyl]-2(1H)-pyridinylidene]-2,2,2-trifluoro-acetamide], the pest or weed control at 0.1 ppm (Myzus persicae; [3]) is reported as 30% and the pest or weed control at 0.1 ppm (Myzus persicae; [4]) is reported as 20%.

For CS/C(C)=N\OC(=O)N(C)SN(C)C(=O)O/N=C(\C)SC [Thiodicarb], the “Efficacy in % after 14d” value (Meloidogyne incognita [1]; 50 ppm) was 0%.

CC(=O)NC1=NN(c2c(F)cccc2F)CC1 [intermediate (Ia-2), N-[1-(2,6-Difluorophenyl)-4,5-dihydro-1H-pyrazol-3-yl]acetamide] showed a logP (logP by HPLC-MS) of 1.46.

CC(=O)Nc1ccn(-c2c(F)cccc2F)n1 [intermediate (Ia-3), N-[1-(2,6-Difluorophenyl)-1H-pyrazol-3-yl]acetamide] showed a logP (logP by HPLC-MS) of 1.33.

In the case of Nc1ccn(-c2c(F)cccc2F)n1 [intermediate (Ia-4), 1-(2,6-Difluorophenyl)-1H-pyrazole-3-amine], the logP (logP by HPLC-MS) is reported as 1.13.

With Nc1ccn(-c2ncc(F)cc2F)n1 [intermediate (Ib-1), 1-(3,5-Difluoropyridin-2-yl)-1H-pyrazole-3-amine] the logP (logP by HPLC-MS) was 0.81.

With Nc1cnn(-c2c(F)cccc2F)n1 [intermediate (Ic-8), 2-(2,6-Difluorophenyl)-2H-1,2,3-triazole-4-amine] the logP (logP by HPLC-MS) was 1.16.

In the case of Abamectin, the “Efficacy in % after 14d” value (Meloidogyne incognita [1]; 0.02 ppm) is reported as 0% and the “Efficacy in % after 14d” value (Meloidogyne incognita [1]; 0.08 ppm) is reported as 0%.

In the case of Emamectin-benzoate, the “Efficacy in % after 15 d (mortality)” value (Tetranychus urticae; drench, bean plants, 2 ppm, after 15 d, single compound) is reported as 10%.
